Measurements reported in paper PMC3881575, “Biochemical and Bioinformatic Characterization of Type II Metacaspase Protein (TaeMCAII) from Wheat” (Plant Molecular Biology Reporter, 2012).

What was measured:
Test in all cases: colorimetric pNA release, […] nm
Format in all cases: biochemical
[1] = biological target: T1, TaeMCAII (Triticum aestivum, UniProt D1MBU0, DEL149-214); settings: 50 μM Ac-VRPR-pNa, pH 7.0, 30 mM CaCl2, 10 mM DTT; 1 h preincubation at 30°C; irreversible, covalent
T1 construct: gene MCAII; full-length ORF (405 residues, 44 kDa) in pET-28a(+), N-terminal His6 tag, E. coli BL21(DE3)pLysS, Ni-NTA; autoprocessed after Lys148 and Arg214 (66-residue linker removed) into 16 kDa N-terminal and 20 kDa C-terminal subunits
T1 sequence (D1MBU0 1-148): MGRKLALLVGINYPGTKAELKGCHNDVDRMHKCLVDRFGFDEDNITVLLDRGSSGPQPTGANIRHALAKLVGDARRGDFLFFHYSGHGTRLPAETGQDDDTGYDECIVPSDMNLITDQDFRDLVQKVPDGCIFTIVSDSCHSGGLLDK
T1 sequence (D1MBU0 215-405): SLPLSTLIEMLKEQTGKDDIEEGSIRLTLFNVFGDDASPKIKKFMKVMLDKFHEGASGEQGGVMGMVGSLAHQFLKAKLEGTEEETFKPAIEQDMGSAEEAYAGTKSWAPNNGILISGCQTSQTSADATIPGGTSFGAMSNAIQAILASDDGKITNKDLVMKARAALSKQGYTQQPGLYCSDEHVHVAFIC

[2] = biological target: T1, TaeMCAII; settings: 50 μM Ac-VRPR-pNa, pH 7.0, 30 mM CaCl2, 10 mM DTT; 1 h preincubation at 30°C; competitive
[3] = biological target: T1, TaeMCAII; settings: 50 μM Ac-VRPR-pNa, pH 7.0, 30 mM CaCl2, 10 mM DTT; 1 h preincubation at 30°C; irreversible, covalent; remark: listed apart in the source

Cc1ccc(S(=O)(=O)N[C@@H](CCCCN)C(=O)CCl)cc1 [TLCK, N^α-tosyl-L-lysine-chloromethyl ketone]
% decrease of activity at 100 μM [1]: 43%

CC(=O)N[C@@H](CC(C)C)C(=O)N[C@@H](CC(C)C)C(=O)N[C@H](C=O)CCCNC(=N)N [leupeptin]
% decrease of activity at 10 μM [2]: 88%

CC(C)C[C@H](NC(=O)[C@@H]1O[C@H]1C(=O)O)C(=O)NCCCCN=C(N)N [E-64, 1-trans-epoxysuccinylleucylamide-(4-guanido)-butane]
% activity retained at 100 μM [3]: 89%
